row,SMILES,logP
1,CCCNC(=O)c1cc2ccccc2o1,2.65
2,CNC(=O)c1c[nH]c2ccccc12,1.25
3,CCNC(=O)c1cc2ccccc2o1,2.22
4,CCNC(=O)c1cc2ccccc2[nH]1,2.32
5,CCCNC(=O)c1ccoc1,1.2
6,CNC(=O)c1cc2ccccc2[nH]1,1.9
7,COC(=O)c1cccn1C,1.8
8,CCOC(=O)c1cc2ccccc2[nH]1,3.22
9,Cn1cccc1C(N)=O,0.45
10,CCCNC(=O)c1cc2ccccc2[nH]1,2.8
11,CCNC(=O)c1ccc[nH]1,0.8
12,CCOC(=O)c1ccc[nH]1,1.73
13,CNC(=O)c1ccc[nH]1,0.42
14,CCNC(=O)c1cccn1C,1.09
15,CCCNC(=O)c1ccc[nH]1,1.25
16,CCNC(=O)c1c[nH]c2ccccc12,1.62
17,O=[N+]([O-])c1cncnc1,-0.05
18,CCOC(=O)c1cc2ccccc2o1,3.05
19,NC(=O)c1ccc[nH]1,0.09
20,CNC(=O)c1cccn1C,0.71
21,CCCNC(=O)c1cccn1C,1.63
22,CNC(=O)c1cc2ccccc2o1,1.85
